# Data from patent US8013153B2, “Substituted pyrimidine kinase inhibitors” (Janssen Pharmaceutica, N.V., priority 2006, dated 2011).
# System: spontaneous intestinal adenoma formation
# Test: C57BL/6J-APC Min-mouse model of human adenomatous polyposis coli
# Format: in vivo, C57BL/6J-Apc min mice
# Conditions: 100 mg/kg orally q.d., versus vehicle-treated group
# Protocol: The ability of Compound 50 to inhibit angiogenesis and tumor growth was tested in a spontaneous tumor model. the pre-cancerous polyp formation in the mouse model of human intestinal tumorigenesis.
# Transgenic C57BL/6J-Apc min mice heterozygous for a dominant nonsense Apc mutation are highly susceptible to spontaneous intestinal adenoma formation (homozygous mice are not viable). One hundred percent of these animals will develop polyps by 12 weeks of age. This model is widely used for studying prevention of intestinal adenoma formation and is well described in the literature (Yang K, Edelmann W, Fan K, et. al. A mouse model of human familial adenomatous polyposis. J Exp Zool. 1997 15; 277(3):245-54).
# Female C57BL/6J-Apc^Min mice (Jackson Laboratory, MN), 5 weeks of age, were housed (up to 10 mice per group) for a minimum of one week. Animals were then sorted into treatment groups based on body weight such that the mean body weight for the animals in each group was approximately the same. Small cohorts of animals (n=6) were sacrificed at day 1, before treatment to get a baseline number of polyps (mean polyp number at beginning of study). […]
# Animals in the treated group (n=10) were dosed daily with Compound 50 at 100 mg/kg orally q.d. for one week. […] The intestine of each mouse was excised, perfused, stained (0.01% Trypan Blue) and polyps were counted under 10× magnification.
substance,measurement,value
1-{4-[6-amino-5-(methoxyimino-methyl)-pyrimidin-4-yloxy]-2-chloro-phenyl}-3-ethyl-urea [Cpd 50],body weights at study end,comparable
